Source: patent publication EP2260303B1, “BIOMARKER FOR THE DIAGNOSIS OF A BRAIN TUMOR” (Meyer, Helmut E., priority 2008, dated 2009)
pEC50: −log10 of the molar value.

Tests used:
[1] = system: Glioblastomzelllinie A172; assay: Chemosensitivity (dose-response curves, EC50) of A172 cell lines with modified biomarker expression; format: cell-based; settings: Homo sapiens
Excerpt: (§1) Alle erfindungsgemäßen Biomarker (SEQ ID No. 1 - 24), die in den differentiellen Untersuchungen identifiziert wurden, sind potentiell in der Lage an der Vermittlung der Chemosensitivität dieser Gliome beteiligt zu sein. Durch den Einsatz ausgewählter Zytostatika mit unterschiedlichen Wirkmechanismen kann überprüft werden, ob die erfindungsgemäßen Biomarker (SEQ ID No. 1 - 24) direkt mit dem Reaktionsmechanismus der in der Therapie üblichen Zytostatika wechselwirken. Hierzu wurden stabile Zelllinien hergestellt und die erfindungsgemäßen Biomarker verstärkt exprimiert (Überexpression) und vermindert (knock-down) exprimiert (siehe J. Sambrook, E.F. Fritsch, T. Maniatis (1989), Molecular cloning: A laboratory manual, 2nd Edition, Cold Spring Habor Laboratory Press, Cold Spring Habor, USA oder Ausubel, "Current Protocols in Molecular Biology", Green Publishing Associates and Wiley Interscience, N.Y. (1989)). Eingesetzte Zytostatika: Carmustin und Vincristin, zwei Substanzen aus dem in der Therapie üblichen PCV Polychemotherapieschema, und Temozolomid, einem in der Therapie […] maligner Gliome neueren Wirkstoff. Zur Auswertung eines Effekts wurden Dosis-Wirkungs-Kurven und deren Lage zueinander und der korrespondierende EC50 Wert (Effektkonzentration; EC-50-Wert besagt, dass bei dieser Konzentration des Stoffes die Hälfte der Versuchsorganismen Wirkungen zeigt) berechnet.

[2] = system: Glioblastomzelllinie T98G; assay: Chemosensitivity (dose-response curves, EC50) of T98G cell lines with modified biomarker expression; format: cell-based; settings: Homo sapiens
Excerpt: as §1

[3] = system: stabilen Zelllinien aus A172 und T98G; assay: Comparison of the response of the stable A172 and T98G cell lines to cytostatics (summary in words); format: cell-based, human; settings: versus control; for Verschiebung der Konzentrationen (Dosis-Wirkungs-Kurven): both cell lines
Excerpt: as §1
Eine veränderte Reaktion auf eine Behandlung mit Carmustin wurde in allen stabilen Zelllinien aus A172 sowie aus T98G beobachtet.
Einen ähnlichen Effekt zeigte die Behandlung der Zelllinien mit Vincristin. […] Dieses Verhalten wurde ebenfalls in den beiden Zelllinien beobachtet.

## Cn1nnc2c(C(N)=O)ncn2c1=O [Temozolomid]
[1]; A 172, A172 knock-down of ANXA1, treatment with Temozolomid
  pEC50: 3.95
[1]; A 172, A172 knock-down of CLIC1, treatment with Temozolomid
  pEC50: 3.82
[1]; A 172, A172 knock-down of PRDX1, treatment with Temozolomid
  pEC50: 3.93
[1]; A 172, A172 knock-down of VIL2, treatment with Temozolomid
  pEC50: 3.94
[1]; A 172, A172 knock-down series, control cell line (Kontrolle), treatment with Temozolomid
  pEC50: 4.39
[1]; A 172, A172 overexpressing ANXA1, treatment with Temozolomid
  pEC50: 3.91
[1]; A 172, A172 overexpressing CLIC1, treatment with Temozolomid
  pEC50: 4.08
[1]; A 172, A172 overexpressing PRDX1, treatment with Temozolomid
  pEC50: 4.58
[1]; A 172, A172 overexpressing VIL2, treatment with Temozolomid
  pEC50: 4.08
[1]; A 172, A172 overexpression series, control cell line (Kontrolle), treatment with Temozolomid
  pEC50: 3.78
[2]; T98G knock-down of ANXA1, treatment with Temozolomid
  pEC50: 3.41
[2]; T98G knock-down of CLIC1, treatment with Temozolomid
  pEC50: 3.48
[2]; T98G knock-down of PRDX1, treatment with Temozolomid
  pEC50: 3.42
[2]; T98G knock-down of VIL2, treatment with Temozolomid
  pEC50: 3.46
[2]; T98G knock-down series, control cell line (Kontrolle), treatment with Temozolomid
  pEC50: 3.49
[2]; T98G overexpressing ANXA1, treatment with Temozolomid
  pEC50: 3.39
[2]; T98G overexpressing CLIC1, treatment with Temozolomid
  pEC50: 3.48
[2]; T98G overexpressing PRDX1, treatment with Temozolomid
  pEC50: 3.49
[2]; T98G overexpressing VIL2, treatment with Temozolomid
  pEC50: 3.40
[2]; T98G overexpression series, control cell line (Kontrolle), treatment with Temozolomid
  pEC50: 3.40
[3]; biomarkers overexpressed, stable cell lines from A172 and T98G
  Sensitivität: erhöhte Sensitivität
[3]; knock-down cell lines from A172 and T98G
  Sensitivität: umgekehrter Effekt

## O=NN(CCCl)C(=O)NCCCl [Carmustin]
[1]; A 172, A172 knock-down of ANXA1, treatment with Carmustin
  pEC50: 4.02
[1]; A 172, A172 knock-down of CLIC1, treatment with Carmustin
  pEC50: 3.77
[1]; A 172, A172 knock-down of PRDX1, treatment with Carmustin
  pEC50: 3.97
[1]; A 172, A172 knock-down of VIL2, treatment with Carmustin
  pEC50: 4.04
[1]; A 172, A172 knock-down series, control cell line (Kontrolle), treatment with Carmustin
  pEC50: 4.03
[1]; A 172, A172 overexpressing ANXA1, treatment with Carmustin
  pEC50: 4.05
[1]; A 172, A172 overexpressing CLIC1, treatment with Carmustin
  pEC50: 3.98
[1]; A 172, A172 overexpressing PRDX1, treatment with Carmustin
  pEC50: 4.45
[1]; A 172, A172 overexpressing VIL2, treatment with Carmustin
  pEC50: 3.97
[1]; A 172, A172 overexpression series, control cell line (Kontrolle), treatment with Carmustin
  pEC50: 5.10
[2]; T98G knock-down of ANXA1, treatment with Carmustin
  pEC50: 3.92
[2]; T98G knock-down of CLIC1, treatment with Carmustin
  pEC50: 4.07
[2]; T98G knock-down of PRDX1, treatment with Carmustin
  pEC50: 3.93
[2]; T98G knock-down of VIL2, treatment with Carmustin
  pEC50: 3.80
[2]; T98G knock-down series, control cell line (Kontrolle), treatment with Carmustin
  pEC50: 3.82
[2]; T98G overexpressing ANXA1, treatment with Carmustin
  pEC50: 3.68
[2]; T98G overexpressing CLIC1, treatment with Carmustin
  pEC50: 3.46
[2]; T98G overexpressing PRDX1, treatment with Carmustin
  pEC50: 3.80
[2]; T98G overexpressing VIL2, treatment with Carmustin
  pEC50: 3.65
[2]; T98G overexpression series, control cell line (Kontrolle), treatment with Carmustin
  pEC50: 4.19

## CC[C@]1(O)C[C@H]2CN(CCc3c([nH]c4ccccc34)[C@@](C(=O)OC)(c3cc4c(cc3OC)N(C=O)[C@H]3[C@@](O)(C(=O)OC)[C@H](OC(C)=O)[C@]5(CC)C=CCN6CC[C@]43[C@@H]65)C2)C1 [Vincristin]
[1]; A 172, A172 knock-down of ANXA1, treatment with Vincristin
  pEC50: 7.43
[1]; A 172, A172 knock-down of CLIC1, treatment with Vincristin
  pEC50: 7.19
[1]; A 172, A172 knock-down of PRDX1, treatment with Vincristin
  pEC50: 7.28
[1]; A 172, A172 knock-down of VIL2, treatment with Vincristin
  pEC50: 7.69
[1]; A 172, A172 knock-down series, control cell line (Kontrolle), treatment with Vincristin
  pEC50: 7.49
[1]; A 172, A172 overexpressing ANXA1, treatment with Vincristin
  pEC50: 7.82
[1]; A 172, A172 overexpressing CLIC1, treatment with Vincristin
  pEC50: 7.71
[1]; A 172, A172 overexpressing PRDX1, treatment with Vincristin
  pEC50: 7.90
[1]; A 172, A172 overexpressing VIL2, treatment with Vincristin
  pEC50: 8.48
[1]; A 172, A172 overexpression series, control cell line (Kontrolle), treatment with Vincristin
  pEC50: 7.82
[2]; T98G knock-down of ANXA1, treatment with Vincristin
  pEC50: 7.72
[2]; T98G knock-down of CLIC1, treatment with Vincristin
  pEC50: 7.57
[2]; T98G knock-down of PRDX1, treatment with Vincristin
  pEC50: 7.69
[2]; T98G knock-down of VIL2, treatment with Vincristin
  pEC50: 7.45
[2]; T98G knock-down series, control cell line (Kontrolle), treatment with Vincristin
  pEC50: 8.00
[2]; T98G overexpressing ANXA1, treatment with Vincristin
  pEC50: 8.38
[2]; T98G overexpressing CLIC1, treatment with Vincristin
  pEC50: 8.43
[2]; T98G overexpressing PRDX1, treatment with Vincristin
  pEC50: 8.02
[2]; T98G overexpressing VIL2, treatment with Vincristin
  pEC50: 7.62
[2]; T98G overexpression series, control cell line (Kontrolle), treatment with Vincristin
  pEC50: 7.49
[3]; cell lines overexpressing the biomarkers
  Verschiebung der Konzentrationen (Dosis-Wirkungs-Kurven): Verschiebung zu niedrigeren Konzentrationen
[3]; knock-down of the biomarkers
  Verschiebung der Konzentrationen (Dosis-Wirkungs-Kurven): höhere Konzentrationen notwendig
